Results taken from patent US5912259A, “Method for treating and preventing neurodegenerative disorders by administering a thiazolidinone” (Warner-Lambert Company, priority 1998, dated 1999).
Where two headings read alike, the source gives them in different places.

Key:
[1] = Systemic exposure in rats; conditions: rat, in vivo, 10 mg/kg
Procedure: As noted above, the thiazolidinone is additionally well-suited to treating elderly patients because of its long duration of action and its substantial lack of undesirable side effects. Toxicologic properties of the thiazolidinone were evaluated in single-dose oral and intravenous (IV) studies in mice and rats and multidose oral studies in rats and dogs. The thiazolidinone was tested in dogs and monkeys in escalating-dose oral toxicity to determine the most sensitive nonrodent species. […] The initial 13-week dog study was repeated to evaluate the reproducibility of the perivascular effects. Dose range-finding studies were performed in pregnant rats and rabbits, and genotoxic potential was assessed in vitro and in vivo. […] Based on exposure at the no-effect dose in definitive studies, the rat appears to be the most sensitive species followed by the dog and the monkey, albeit with minor differences in exposure between the species.

[2] = test system: experimental autoimmune encephalomyelitis (EAE)
Procedure: The thiazolidinone was evaluated in a mouse model of experimental autoimmune encephalomyelitis (EAE). The compound was administered orally to mice sensitized with a fragment of mouse myelin basic protein to induce EAE. Two experiments were conducted using the same protocol and neurological evaluations. Test animals were dosed for 21 days, beginning 4 hours before sensitization on Day 1. The effects of the thiazolidinone were compared to a control group of mice sensitized identically and dosed with vehicle alone. Neurological evaluations continued after cessation of drug treatment. The values reported in Tables 1 and 2 below include responses during drug treatment only.
The thiazolidinone was homogenized manually with an aliquot of warm vehicle (0.5% hydroxypropyl methylcellulose with 0.2% Tween 80in water) in glass mortar tubes and homogenizing pestle. The smooth drug paste was gradually suspended in vehicle. Mice were dosed with drug and/or vehicle, […] in groups of ten (Experiment 1) or twenty (Experiment 2). Mice were dosed from Experiment Day 1 to Day 21. A sham-sensitized group was similarly dosed with vehicle or thiazolidinone 30 mg/kg (Experiment 1).
Female mice, strain PL/J(F1)×SJL/J from Jackson Labs, were sensitized s.c. (0.05 cc×2) at the base of the tail with an emulsion containing equal parts of mouse myelin basic protein (MBP) fragment (amino acids 1-9 of the N-terminus of MBP) in saline and Difco Complete Freund's Adjuvant (CFA) fortified with heat killed desiccated Mycobacteria tuberculosis (MT). Each mouse received 300 μg of the MBP fragment (230 μg free base) and 200 μg MT followed by retrobulbar (i.v.) injection of 200 ng of B. pertussis toxin in 0.2 cc of saline. Forty-eight hours later, mice received a second injection of B. pertussis toxin. Mice in Experiment 1 were 8 to 9 weeks old; mice in Experiment 2 were 11 weeks old.
Animals were weighed and evaluated for symptoms of EAE before sensitization and frequently for 21 days. EAE score: (0.5=slight limp tail, 1=limp tail or slow to right, 1.5=slight limp tail and slow to right, 2=paresis/mild paralysis or incontinence, 2.5=mild paralysis and slow to right or complete paralysis (one hind limb), 3=hind limb paralysis (both), 3.5=hind limb paralysis (both) and limp torso; 4=additional fore limb paralysis, 4.5=head movement only, 5=moribund, death after previous EAE symptoms). Evaluators were blinded as to drug treatments and previous behavioral scores.
Disease symptoms were compared among groups for EAE severity, incidence, time to onset, cumulative score, deaths, and weight loss. Peak EAE score: the mean of highest score of each mouse in a group, independent of duration of symptoms; EAE incidence: the mean number of mice showing symptoms of EAE, defined as having EAE scores on any three consecutive days that total≥3.0. EAE deaths: An animal that died must have presented previous evidence of an EAE score greater than 0.5; EAE onset: the first of a 3-day series scoring a total of≥3.0. A Cumulative EAE score is calculated for each animal. A mean of all animals' cumulative score is then determined for each day. Maximum weight loss: the mean of the lowest weight for each animal in a group. (Note: The Cumulative EAE score and the Maximum weight loss can be influenced by death which eliminates severely diseased animals. The number of days that animals are scored also affects the cumulative score and can only be compared "within-trial"). Mice that die from dosing trauma or with no previous symptoms of EAE are deleted from the study. Experimental groups were assumed to be similar and were compared for statistical significance by a two-tailed t-test (p≤0.05).

cortical neurons = assay: Hypoxia/hypoglycemia-induced death of cortical neurons (LDH); format: cell-based, fetal Sprague-Dawley rat
Excerpt: Cerebral ischemia can be modeled in vitro by lowering oxygen and glucose in the media of cortical neurons. For this study, cortical neurons were isolated from fetal Sprague-Dawley rat brains on Day E18. Cortical hemispheres were sectioned, dissociated, and triturated in Hank's Balanced Salt Solution (HBSS) containing 0.1% trypsin. Cell concentration was adjusted to 620,000 cells/mL by the addition of Dulbecoo's Modified Eagles Medium (DME) and Ham's Nutrient mixture F-12 (F12) 1:1 supplemented with heat-inactivated 10% horse serum and 6% fetal calf serum. A 100 μL aliquot of cell suspension was pipetted into each individual well of a 96-well polyethylenimine-coated culture plate. After 4 days in an incubator at 37° C. in an atmosphere of 8% CO2,100 μL medium was drawn off from each well and replaced with 100 μL of DME/F12 with 10% horse serum to which 30 μg/mL 5-fluoro-2-deoxyuridine and 70 μg/mL uridine were added to prevent further division of the glial cells. Cultures were read every 2 to 3 days thereafter by half volume (100 μL) replacement with DME/F12 (10% horse serum).
Cells were exposed to an hypoxic/hypoglycemic environment (91% N2 /[…] /1% O2, 1 mM glucose, 37° C.) for varying times in 50 μL HBSS. Cultures were then returned to the normoxic incubator (21% O2 /8% CO2,25 mM glucose) and quantitative assessment of cell death made 24 hours later by measurement of the intracellular enzyme lactate dehydrogenase (LDH). Cells were exposed for 1 hour to the thiazolidinone or other drugs prior to the induction of hypoxia/hypoglycemia.

[3] = sensitized, 30 mg oral, (a) deaths designated due to EAE
[4] = sensitized, 30 mg oral, (b) deaths due to unknown causes removed

CC(C)(C)c1cc(/C=C2\SC(N)=NC2=O)cc(C(C)(C)C)c1O [CI-1004, (Z)-5-[[3,5-bis(1,1-dimethylethyl)-4-hydroxyphenyl]methylene]-2-imino-4-thiazolidinone methanesulfonate]
Cmax and AUC relative to male rats at the same dose [1]: approximately twice those in male rats at the same dose
Cmax ([1]; po): 970 ng/mL
AUC(0-t) at 24 h ([1]; po, male rats): 16500 ng·h/mL
deaths at ≤Day 10 ([2]; mouse, in vivo, 30 mg/kg): three deaths
Cumulative Score ([2]; sensitized, 3 mg oral): 20.3 ± 1.7
Deaths ([2]; sensitized, 3 mg oral): 2/10
EAE Incidence ([2]; sensitized, 3 mg oral): 10/10
EAE Onset ([2]; sensitized, 3 mg oral): 12.2 ± 0.3 days
EAE Peak Score ([2]; sensitized, 3 mg oral): 3.7 ± 0.3
Cumulative Score ([2]; sensitized, 10 mg oral): 10.9 ± 1.7
Deaths ([2]; sensitized, 10 mg oral): 2/10
EAE Incidence ([2]; sensitized, 10 mg oral): 7/10
EAE Onset ([2]; sensitized, 10 mg oral): 12.1 ± 1.5 days
EAE Peak Score ([2]; sensitized, 10 mg oral): 3.0 ± 0.6
daily EAE scores, incidence, cumulative EAE scores, weight loss ([2]; sensitized, 10 mg/kg): showed a suggestion of inhibition of daily EAE scores, reduced incidence, cumulative EAE scores, and weight loss
Cumulative Score [2, 3]: 10.9 ± 3.4
Deaths [2, 3]: 3/9
EAE Incidence [2, 3]: 7/9
EAE Onset [2, 3]: 12.7 ± 2.2 days
EAE Peak Score [2, 3]: 3.1 ± 0.6
Cumulative Score [2, 4]: 9.4 ± 3.4
Deaths [2, 4]: 0/6
EAE Incidence [2, 4]: 4/6
EAE Onset [2, 4]: 16.0 ± 2.1 days
EAE Peak Score ([2]; sensitized, 30 mg oral, (b) deaths due to unknown causes removed, p < 0.05): 2.1 ± 0.6
overall EAE symptoms ([2]; sensitized, 30 mg/kg, Method A): no significant reduction in overall EAE symptoms
peak EAE score and weight loss ([2]; sensitized, 30 mg/kg, Method B): significant reduction in the peak EAE score and weight loss
daily EAE scores Days 10 to 21 ([2]; sensitized, 30 mg/kg, Methods A and B): tendency to reduced daily EAE scores from Days 10 to 21, although a statistically significant reduction was seen only on Day 15 (p≤0.05)
EAE scores versus vehicle controls to Day 21 ([2]; sensitized, 3 or 10 mg/kg): did not show significantly reduced EAE scores
Cumulative Score ([2]; sham-sensitized, 30 mg oral): 1.4 ± 0.6
Deaths ([2]; sham-sensitized, 30 mg oral): 0/9
EAE Incidence ([2]; sham-sensitized, 30 mg oral): 0/9
EAE Peak Score ([2]; sham-sensitized, 30 mg oral): 0.8 ± 0
EAE symptoms and deaths in sham-sensitized mice ([2]; sham-sensitized, 30 mg/kg): showed little symptoms of disease and no deaths
duration of hypoxia/hypoglycemia before loss of viability (cortical neurons; 1 μM): no effect
duration of hypoxia/hypoglycemia before loss of viability (cortical neurons; 10 μM): significantly increased the duration of hypoxia/hypoglycemia before the cells lost viability
neuronal death after hypoxia/hypoglycemia (cortical neurons; 10 μM, 4 hours of exposure, control approximately 50% killed): no neuronal death
